From ChEMBL document CHEMBL6127102 (Bioorg Med Chem, 2024)
Activity calls are given as the source filed them. The rule behind the calls is not given here.

Legend:
MDA-MB-231 [1] = experiment: Antitumor activity against human MDA-MB-231 cells harboring wild-type BRCA incubated for 72 hrs by MTT assay; type: functional, cell-based; conditions: MDA-MB-231, 72 h
MDA-MB-468 = experiment: Antitumor activity against human MDA-MB-468 cells harboring wild-type BRCA incubated for 72 hrs by MTT assay; type: functional, cell-based; conditions: MDA-MB-468, 72 h
HCC1937 = experiment: Antitumor activity against BRCA 1-deficient human HCC1937 cells incubated for 72 hrs by MTT assay; type: functional, cell-based; conditions: HCC1937, 72 h
MDA-MB-436 = experiment: Antitumor activity against BRCA 1-deficient human MDA-MB-436 cells incubated for 72 hrs by MTT assay; type: functional, cell-based; conditions: MDA-MB-436, 72 h
[2] = Cytotoxicity against human MCF-10A cells incubated for 72 hrs by MTT assay; type: toxicity, cell-based
MDA-MB-231 [3] = experiment: Induction of apoptosis in human MDA-MB-231 cells as increase in red fluorescence at 5 uM incubated for 24 hrs by Calcein AM/PI staining based confocal microscopy; type: functional, cell-based
MDA-MB-231 [4] = experiment: Effect on RAF expression in human MDA-MB-231 cells at 5 uM incubated for 24 hrs by Western blot analysis; type: functional, cell-based
MDA-MB-231 [5] = experiment: Effect on CRAF expression in human MDA-MB-231 cells at 5 uM incubated for 24 hrs by Western blot analysis; type: functional, cell-based
MDA-MB-231 [6] = experiment: Effect on MEK phosphorylation in human MDA-MB-231 cells at 5 uM incubated for 24 hrs by Western blot analysis; type: functional, cell-based
MDA-MB-231 [7] = experiment: Effect on ERK1/2 phosphorylation in human MDA-MB-231 cells at 5 uM incubated for 24 hrs by Western blot analysis; type: functional, cell-based
MDA-MB-231 [8] = experiment: Effect on total MEK in human MDA-MB-231 cells at 5 uM incubated for 24 hrs by Western blot analysis; type: functional, cell-based
MDA-MB-231 [9] = experiment: Effect on total ERK1/2 in human MDA-MB-231 cells at 5 uM incubated for 24 hrs by Western blot analysis; type: functional, cell-based
MDA-MB-231 [10] = experiment: Induction of DNA damage in human MDA-MB-231 cells assessed as increase in olive tail moments at 5 uM incubated for 24 hrs by Comet assay; type: functional, cell-based
MDA-MB-231 [11] = experiment: Induction of ROS generation in human MDA-MB-231 cells at 5 uM incubated for 24 hrs by DCFH-DA staining based flow cytometric analysis; type: functional, cell-based
MDA-MB-231 [12] = experiment: Induction of DNA damage in human MDA-MB-231 cells assessed as increase in gamma-H2AX level at 5 uM incubated for 24 hrs by immunofluorescence based analysis; type: functional, cell-based
MDA-MB-231 [13] = experiment: Induction of apoptosis in human MDA-MB-231 cells at 5 uM incubated for 24 hrs by Annexin V-FITC/PI staining based flow cytometry relative to control; type: functional
[14] = Induction of depolarization of mitochondrial membrane potential in human MDA-MB-231 cells at 5 uM incubated for 24 hrs by JC-1 staining based flow cytometry relative to control; type: functional
MDA-MB-231 [15] = experiment: Anti-migration activity in human MDA-MB-231 cells at 1 uM incubated for 24 hrs by wound healing assay; type: functional, cell-based
MDA-MB-231 [16] = experiment: […] activity in human MDA-MB-231 cells at 1 uM incubated for 24 hrs by wound healing assay; type: functional, cell-based
MDA-MB-231 [17] = experiment: Induction of apoptosis in human MDA-MB-231 cells assessed as increase in Bax level at 5 uM incubated for 24 hrs by Western blot analysis; type: functional, cell-based
MDA-MB-231 [18] = experiment: Induction of apoptosis in human MDA-MB-231 cells assessed as decrease in Bcl-2 level at 5 uM incubated for 24 hrs by Western blot analysis; type: functional, cell-based
MDA-MB-231 [19] = experiment: Induction of apoptosis in human MDA-MB-231 cells assessed as increase in cleaved PARP level at 5 uM incubated for 24 hrs by Western blot analysis; type: functional, cell-based
MDA-MB-231 [20] = experiment: Induction of apoptosis in human MDA-MB-231 cells assessed as increase in cleaved caspase-3 level at 5 uM incubated for 24 hrs by Western blot analysis; type: functional, cell-based
MDA-MB-231 [21] = experiment: Induction of apoptosis in human MDA-MB-231 cells assessed as increase in cleaved caspase-9 level at 5 uM incubated for 24 hrs by Western blot analysis; type: functional, cell-based
MDA-MB-231 [22] = experiment: Antitumor activity against human MDA-MB-231 cells xenografted in BALB/c nude mouse at 23 mg/kg, ip administered on every 2 days for 28 days relative to control; type: functional; conditions: MDA-MB-231, 672 h, time 28 day, read-out: TGI
MDA-MB-231 [23] = experiment: Antitumor activity against human MDA-MB-231 cells xenografted in BALB/c nude mouse at 23 mg/kg, ip administered on every 2 days for 28 days in presence of Olaparib relative to control; type: functional; conditions: MDA-MB-231, 672 h, time 28 day, read-out: TGI
[24] = Toxicity in BALB/c nude mouse xenografted with human MDA-MB-231 cells assessed as body weight change at 23 mg/kg, ip administered on every 2 days for 28 days; type: organism-based; conditions: in vivo, 672 h, time 28 day
[25] = Toxicity in BALB/c nude mouse xenografted with human MDA-MB-231 cells assessed as body weight change at 23 mg/kg, ip administered on every 2 days for 28 days in presence of Olaparib; type: organism-based; conditions: in vivo, 672 h, time 28 day
[26] = Toxicity in BALB/c nude mouse xenografted with human MDA-MB-231 cells assessed as drug tolerance at 23 mg/kg, ip administered on every 2 days for 28 days; type: organism-based; conditions: in vivo, 672 h, time 28 day
[27] = Toxicity in BALB/c nude mouse xenografted with human MDA-MB-231 cells assessed as drug tolerance at 23 mg/kg, ip administered on every 2 days for 28 days in presence of Olaparib; type: organism-based; conditions: in vivo, 672 h, time 28 day
MDA-MB-231 [28] = experiment: Antitumor activity against human MDA-MB-231 cells xenografted in BALB/c nude mouse assessed as increase in apoptotic cells at 23 mg/kg, ip administered on every 2 days for 28 days by H and E staining based analysis; type: functional, organism-based; conditions: time 28.0 day
MDA-MB-231 [29] = experiment: Antitumor activity against human MDA-MB-231 cells xenografted in BALB/c nude mouse assessed as increase in necrotic cells at 23 mg/kg, ip administered on every 2 days for 28 days by H and E staining based analysis; type: functional, organism-based; conditions: time 28.0 day
MDA-MB-231 [30] = experiment: Antitumor activity against human MDA-MB-231 cells xenografted in BALB/c nude mouse assessed as decrease in Ki-67 expression at 23 mg/kg, ip administered on every 2 days for 28 days by H and E staining based analysis; type: functional, organism-based; conditions: time 28.0 day
MDA-MB-231 [31] = experiment: Antitumor activity against human MDA-MB-231 cells xenografted in BALB/c nude mouse assessed as increase in apoptotic cells at 23 mg/kg, ip administered on every 2 days for 28 days in presence of Olaparib by H and E staining based analysis; type: functional, organism-based; conditions: time 28.0 day
MDA-MB-231 [32] = experiment: Antitumor activity against human MDA-MB-231 cells xenografted in BALB/c nude mouse assessed as increase in necrotic cells at 23 mg/kg, ip administered on every 2 days for 28 days in presence of Olaparib by H and E staining based analysis; type: functional, organism-based; conditions: time 28.0 day
MDA-MB-231 [33] = experiment: Antitumor activity against human MDA-MB-231 cells xenografted in BALB/c nude mouse assessed as decrease in Ki-67 expression at 23 mg/kg, ip administered on every 2 days for 28 days in presence of Olaparib by H and E staining based analysis; type: functional, organism-based; conditions: time 28.0 day
[34] = target: Poly [ADP-ribose] polymerase 1 (Homo sapiens, UniProt P09874); experiment: Inhibition of PARP1 (unknown origin) using histone as substrate incubated for 60 mins by ELISA
Chain of Poly [ADP-ribose] polymerase 1 (P09874 whole entry): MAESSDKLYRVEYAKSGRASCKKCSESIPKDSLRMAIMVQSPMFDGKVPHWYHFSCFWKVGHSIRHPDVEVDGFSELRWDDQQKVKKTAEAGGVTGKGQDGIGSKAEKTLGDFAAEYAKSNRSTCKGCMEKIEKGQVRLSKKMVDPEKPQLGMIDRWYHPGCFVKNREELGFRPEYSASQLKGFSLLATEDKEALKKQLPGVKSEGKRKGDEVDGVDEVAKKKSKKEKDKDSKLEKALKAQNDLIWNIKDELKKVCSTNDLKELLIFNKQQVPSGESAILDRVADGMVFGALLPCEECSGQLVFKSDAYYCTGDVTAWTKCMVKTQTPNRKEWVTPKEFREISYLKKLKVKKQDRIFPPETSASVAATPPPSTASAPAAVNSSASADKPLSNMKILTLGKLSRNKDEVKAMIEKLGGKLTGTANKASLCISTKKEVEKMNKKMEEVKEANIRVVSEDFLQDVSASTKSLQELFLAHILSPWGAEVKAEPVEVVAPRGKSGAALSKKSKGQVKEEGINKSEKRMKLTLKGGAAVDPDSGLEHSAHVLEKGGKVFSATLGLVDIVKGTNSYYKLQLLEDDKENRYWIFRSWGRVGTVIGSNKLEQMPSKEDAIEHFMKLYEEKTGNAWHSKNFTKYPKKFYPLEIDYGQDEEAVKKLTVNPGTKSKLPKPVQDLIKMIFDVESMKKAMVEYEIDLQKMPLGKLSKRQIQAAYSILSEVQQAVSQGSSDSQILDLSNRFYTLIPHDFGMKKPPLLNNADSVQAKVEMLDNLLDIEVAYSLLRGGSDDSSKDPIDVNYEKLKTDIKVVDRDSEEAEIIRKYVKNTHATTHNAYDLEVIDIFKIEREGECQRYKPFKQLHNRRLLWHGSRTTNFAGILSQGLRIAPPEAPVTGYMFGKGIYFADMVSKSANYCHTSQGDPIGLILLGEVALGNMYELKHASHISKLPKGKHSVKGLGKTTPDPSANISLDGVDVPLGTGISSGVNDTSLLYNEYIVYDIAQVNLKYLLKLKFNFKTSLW

MDA-MB-231 [35] = experiment: Anti-migration activity in human MDA-MB-231 cells assessed as wound closure area at 1 uM incubated for 24 hrs by wound healing assay (reference value: 75.6 %); type: functional
[36] = Toxicity in BALB/c nude mouse xenografted with human MDA-MB-231 cells assessed as body weight change at 20 mg/kg, ip administered on every 2 days for 28 days; type: organism-based; conditions: in vivo, 672 h, time 28 day
[37] = Toxicity in BALB/c nude mouse xenografted with human MDA-MB-231 cells assessed as drug tolerance at 20 mg/kg, ip administered on every 2 days for 28 days; type: organism-based; conditions: in vivo, 672 h, time 28 day
MDA-MB-231 [38] = experiment: Antitumor activity against human MDA-MB-231 cells xenografted in BALB/c nude mouse assessed as increase in apoptotic cells at 20 mg/kg, ip administered on every 2 days for 28 days by H and E staining based analysis; type: functional, organism-based; conditions: time 28.0 day
MDA-MB-231 [39] = experiment: Antitumor activity against human MDA-MB-231 cells xenografted in BALB/c nude mouse assessed as increase in necrotic cells at 20 mg/kg, ip administered on every 2 days for 28 days by H and E staining based analysis; type: functional, organism-based; conditions: time 28.0 day
MDA-MB-231 [40] = experiment: Antitumor activity against human MDA-MB-231 cells xenografted in BALB/c nude mouse assessed as decrease in Ki-67 expression at 20 mg/kg, ip administered on every 2 days for 28 days by H and E staining based analysis; type: functional, organism-based; conditions: time 28.0 day

IC50 (MDA-MB-231 [1]) [µM] | IC50 (MDA-MB-468) [µM] | IC50 (HCC1937) [µM] | IC50 (MDA-MB-436) [µM] | Structure (SMILES) | IC50 at 72 h [2] [µM] | Activity (MDA-MB-231 [3]) | Activity (MDA-MB-231 [4]) | Activity (MDA-MB-231 [5]) | Activity (MDA-MB-231 [6]) | Activity (MDA-MB-231 [7]) | Activity (MDA-MB-231 [10]) | Activity (MDA-MB-231 [11]) | Activity (MDA-MB-231 [12]) | Activity (MDA-MB-231 [13]) [%] | Activity [14] [%] | Activity (MDA-MB-231 [16]) | Activity (MDA-MB-231 [17]) | Activity (MDA-MB-231 [18]) | further results
6.94 | 6.99 | 5.29 | 7.14 | COc1cc(OC)c(/C=C/S(=O)(=O)Cc2ccc(OC)c(NC(=O)CCCCC(=O)O)c2)c(OC)c1 | > 40 | – | – | – | – | – | – | – | – | – | – | – | – | – | –
1.87 | 2.33 | 1.08 | 2.11 | COc1cc(OC)c(/C=C/S(=O)(=O)Cc2ccc(OC)c(NCCCC(=O)O)c2)c(OC)c1 | 30.6 | Active | inactive | Active | Active | Active | Active | Active | Active | 31.1 | 31.56 | Active | Active | Active | Activity (MDA-MB-231 [8]): inactive; Activity (MDA-MB-231 [9]): inactive; Activity (MDA-MB-231 [15]): Active; Activity (MDA-MB-231 [19]): Active; Activity (MDA-MB-231 [20]): Active; Activity (MDA-MB-231 [21]): Active; inhibition in vivo at 23 mg/kg (MDA-MB-231 [22]): 51.8%; inhibition in vivo at 23 mg/kg (MDA-MB-231 [23]): 56.7%; Activity [24]: Non-Toxic; Activity [25]: Non-Toxic; Activity [26]: Non-Toxic; Activity [27]: Non-Toxic; Activity (MDA-MB-231 [28]): Active; Activity (MDA-MB-231 [29]): Active; Activity (MDA-MB-231 [30]): Active; Activity (MDA-MB-231 [31]): Active; Activity (MDA-MB-231 [32]): Active; Activity (MDA-MB-231 [33]): Active
21 | 12.3 | 3.21 | 2.61 | O=C(c1cc(Cc2n[nH]c(=O)c3ccccc23)ccc1F)N1CCNCC1 | > 40 | inactive | inactive | inactive | inactive | inactive | inactive | inactive | inactive | 21.14 | 23.88 | inactive | Active | Active | IC50 [34]: 0.0395 µM; Activity (MDA-MB-231 [35]): 66.1%
2.08 | 3.19 | 2.17 | 2.09 | COc1cc(OC)c(/C=C/S(=O)(=O)Cc2ccc(OC)c(NC(=O)CCC(=O)O)c2)c(OC)c1 | > 40 | – | – | – | – | – | – | – | – | – | – | – | – | – | –
25.5 | 14.8 | 5.37 | 4.25 | O=C(c1cc(Cc2n[nH]c(=O)c3ccccc23)ccc1F)N1CCN(C(=O)C2CC2)CC1 [OLAPARIB] | > 40 | – | – | – | – | – | – | – | – | – | – | – | – | – | Activity [36]: Non-Toxic; Activity [37]: Non-Toxic; Activity (MDA-MB-231 [38]): Active; Activity (MDA-MB-231 [39]): Active; Activity (MDA-MB-231 [40]): Active
2.29 | 5.37 | 4.76 | 3.27 | COc1cc(OC)c(/C=C/S(=O)(=O)Cc2ccc(OC)c(NCCCCCC(=O)O)c2)c(OC)c1 | > 40 | – | – | – | – | – | – | – | – | – | – | – | – | – | –
